In US7276502B2, “Thiazoles useful as inhibitors of protein kinases” (Vertex Pharmaceuticals Incorporated, priority 2003, dated 2007):
Where two headings read alike, the source gives them in different places.

Tests used:
[1] = biological target: SYK (Homo sapiens, UniProt P43405); assay: SYK inhibition assay (standard coupled enzyme assay); format: biochemical
Description: Reactions were carried out in 100 mM HEPES (pH 7.5), 10 mM MgCl2, 25 mM NaCl, 1 mM DTT and 1.5% DMSO. Final substrate concentrations in the assay were 200 μM ATP (Sigma chemical Co.) and 4 μM poly Gly-Tyr peptide (Sigma Chemical Co.). Assays were carried out at 30° C. and 200 nM SYK. Final concentrations of the components of the coupled enzyme system were 2.5 mM phosphoenolpyruvate, 300 μM NADH, 30 μg/ml pyruvate kinase and 10 μg/ml lactate dehydrogenase.
An assay stock buffer solution was prepared containing all of the reagents listed above, with the exception of SYK, DTT, and the test compound of interest of the present invention. 56 μl of the test reaction was placed in a 96 well plate followed by the addition of 1 μl of 2 mM DMSO stock containing the test compound of the present invnetion (final compound concentration 30 μM).

[2] = biological target: T1, ZAP-70 (Homo sapiens, UniProt P43403); assay: ZAP-70 inhibition assay (standard coupled enzyme assay); format: biochemical; conditions: 100 μM ATP, 20 μM poly-4EY peptide, 30° C., 60 nM ZAP-70
T1 sequence (P43403 1-619): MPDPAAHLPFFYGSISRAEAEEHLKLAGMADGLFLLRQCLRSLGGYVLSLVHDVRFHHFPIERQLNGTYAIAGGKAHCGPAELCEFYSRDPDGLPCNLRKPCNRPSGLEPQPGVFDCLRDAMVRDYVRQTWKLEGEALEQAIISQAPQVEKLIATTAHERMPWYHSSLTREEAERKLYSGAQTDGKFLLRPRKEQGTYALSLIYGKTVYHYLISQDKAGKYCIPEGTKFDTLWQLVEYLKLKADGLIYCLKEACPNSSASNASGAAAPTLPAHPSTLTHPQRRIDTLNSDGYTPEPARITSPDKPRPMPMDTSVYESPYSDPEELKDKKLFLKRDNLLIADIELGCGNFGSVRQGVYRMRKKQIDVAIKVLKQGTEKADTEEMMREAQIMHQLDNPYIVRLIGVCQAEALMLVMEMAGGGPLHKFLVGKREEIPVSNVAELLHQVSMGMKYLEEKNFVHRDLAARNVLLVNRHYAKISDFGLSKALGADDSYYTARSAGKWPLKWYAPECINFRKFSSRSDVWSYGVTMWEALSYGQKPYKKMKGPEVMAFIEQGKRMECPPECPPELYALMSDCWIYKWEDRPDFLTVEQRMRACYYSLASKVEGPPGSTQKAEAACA
Description: Compounds were screened for their ability to inhibit ZAP-70 using a standard coupled enzyme assay (Fox et al., Protein Sci. 1998, 7, 2249). Assays were carried out in a mixture of 100 mM HEPES (pH 7.5), 10 mM MgCl2, 25 mM NaCl, 2 mM DTT and 3% DMSO. Final substrate concentrations in the assay were 100 μM ATP (Sigma Chemicals) and 20 μM peptide (poly-4EY, Sigma Chemicals). Assays were carried out at 30° C. and 60 nM ZAP-70. Final concentrations of the components of the coupled enzyme system were 2.5 mM phosphoenolpyruvate, 300 μM NADH, 30 μg/ml pyruvate kinase and 10 μg/ml lactate dehydrogenase.
An assay stock buffer solution was prepared containing all of the reagents listed above, with the exception of ZAP-70 and the test compound of interest of the present invention. 55 μl of the stock solution was placed in a 96 well plate followed by addition of 2 μl of DMSO stock containing serial dilutions of the test compound of the present invention (typically starting from a final concentration of 15 μM). The plate was preincubated for 10 minutes at 30° C. and the reaction initiated by addition of 10 μl of enzyme (final concentration 60 nM). Initial reaction rates were determined with a Molecular Devices SpectraMax Plus plate reader over a 15 minute time course. Ki data was calculated from non-linear regression analysis using the Prism software package (GraphPad Prism version 3.0a for Macintosh, GraphPad Software, San Diego Calif., USA).

[3] = coupled enzyme assay, 200 μM ATP, 4 μM poly Gly-Tyr peptide, 30° C., read-out: Ki (SYK)

Row | Compound | Ki [1, 3] | Ki [2] | Ki [1]
1 | Cc1cc(C)cc(Nc2nccc(-c3ncc(C)s3)n2)c1 [Example I-41] | – | ≤ 5 µM | ≤ 5 µM
2 | Cc1cnc(-c2ccnc(Nc3ccc4cn[nH]c4c3)n2)s1 [Example I-9] | ≤ 5 µM | ≤ 5 µM | –
3 | Cc1cc(C)cc(Nc2nccc(-c3nc(COC(N)=O)cs3)n2)c1 [Example I-77] | ≤ 5 µM | ≤ 5 µM | –
4 | CSc1cccc(Nc2nccc(-c3ncc(C)s3)n2)c1 [Example I-130] | ≤ 5 µM | ≤ 5 µM | –
5 | Cc1cnc(-c2ccnc(Nc3ccc4c(c3)CCC4)n2)s1 [Example I-50] | ≤ 5 µM | ≤ 5 µM | –
6 | Cc1cc(Nc2nccc(-c3ncc(C)s3)n2)cc(NS(C)(=O)=O)c1 [Example I-155] | ≤ 5 µM | ≤ 5 µM | –
7 | Cc1cnc(-c2ccnc(Nc3ccc4[nH]nc(C)c4c3)n2)s1 [Example I-136] | ≤ 5 µM | ≤ 5 µM | –
8 | Cc1cnc(-c2ccnc(Nc3c(C)cccc3C)n2)s1 [Example I-100] | ≤ 5 µM | ≤ 5 µM | –
9 | Cc1cnc(-c2ccnc(Nc3ccc(O)c(C)c3)n2)s1 [Example I-102] | ≤ 5 µM | ≤ 5 µM | –
10 | CCN1CCN(Cc2cnc(-c3ccnc(Nc4cc(C)cc(C)c4)n3)s2)CC1 [Example I-47] | ≤ 5 µM | ≤ 5 µM | –
11 | COCc1cc(=O)oc2cc(Nc3nccc(-c4ncc(C)s4)n3)ccc12 [Example I-22] | ≤ 5 µM | ≤ 5 µM | –
12 | CCCc1ccccc1Nc1nccc(-c2ncc(C)s2)n1 [Example I-103] | ≤ 5 µM | ≤ 5 µM | –
13 | Cc1cnc(-c2ccnc(Nc3ccc(C(C)(C)C)cc3)n2)s1 [Example I-120] | ≤ 5 µM | ≤ 5 µM | –
14 | OCc1csc(-c2ccnc(Nc3cc(O)cc(C(F)(F)F)c3)n2)n1 [Example I-146] | – | ≤ 5 µM | ≤ 5 µM
15 | COCc1csc(-c2ccnc(Nc3cc(C)cc(C)c3)n2)n1 [Example I-66] | ≤ 5 µM | ≤ 5 µM | –
16 | Cc1cnc(-c2ccnc(Nc3ccc4[nH]c(C(F)(F)F)nc4c3)n2)s1 [Example I-1] | ≤ 5 µM | ≤ 5 µM | –
17 | COc1cccc(Nc2nccc(-c3ncc(C)s3)n2)c1 [Example I-27] | ≤ 5 µM | ≤ 5 µM | –
18 | OCc1cnc(-c2ccnc(Nc3ccccc3OCc3ccccc3)n2)s1 [Example I-150] | ≤ 5 µM | ≤ 5 µM | –
19 | Cc1cc(C)cc(Nc2nccc(-c3ncc(CN4CCC[C@H]4CO)s3)n2)c1 [Example I-86] | ≤ 5 µM | ≤ 5 µM | –
20 | Cc1cc(C)cc(Nc2nccc(-c3ncc(C(=O)NCCN)s3)n2)c1 [Example I-138] | ≤ 5 µM | ≤ 5 µM | –

Row | Compound | Ki [1, 3] | Ki [2] | Ki [1]
21 | Cc1cc(C)cc(Nc2nccc(-c3ncc(N4CCCCC4)s3)n2)c1 [Example I-74] | ≤ 5 µM | ≤ 5 µM | –
22 | Cc1cc(C)cc(Nc2nccc(-c3ncc(NCCN)s3)n2)c1 [Example I-142] | ≤ 5 µM | ≤ 5 µM | –
23 | Cc1cnc(-c2ccnc(Nc3cccc(N)c3)n2)s1 [Example I-32] | ≤ 5 µM | ≤ 5 µM | –
24 | Cc1cc(C)cc(Nc2nccc(-c3ncc(C(=O)N4CCNCC4)s3)n2)c1 [Example I-134] | ≤ 5 µM | ≤ 5 µM | –
25 | Cc1cc(C)cc(Nc2nccc(-c3ncc(CN(C)CCO)s3)n2)c1 [Example I-87] | ≤ 5 µM | ≤ 5 µM | –
26 | Cc1cnc(-c2ccnc(Nc3ccncc3)n2)s1 [Example I-152] | ≤ 5 µM | ≤ 5 µM | –
27 | OCc1cnc(-c2ccnc(Nc3cc(O)cc(C(F)(F)F)c3)n2)s1 [Example I-144] | ≤ 5 µM | ≤ 5 µM | –
28 | CCCc1cnc(-c2ccnc(Nc3cc(C)cc(C)c3)n2)s1 [Example I-85] | ≤ 5 µM | ≤ 5 µM | –
29 | Cc1cnc(-c2ccnc(Nc3cccc(S(=O)(=O)c4cccc(N)c4)c3)n2)s1 [Example I-6] | ≤ 5 µM | ≤ 5 µM | –
30 | Cc1cnc(-c2ccnc(Nc3ccc(N)cc3)n2)s1 [Example I-140] | ≤ 5 µM | ≤ 5 µM | –
31 | COc1cc(Nc2nccc(-c3ncc(CO)s3)n2)cc(C(F)(F)F)c1 [Example I-83] | ≤ 5 µM | ≤ 5 µM | –
32 | CCOP(=O)(Cc1ccc(Nc2nccc(-c3ncc(C)s3)n2)cc1)OCC [Example I-33] | – | – | ≤ 5 µM
33 | CSc1ccc(Nc2nccc(-c3ncc(C)s3)n2)cc1 [Example I-131] | ≤ 5 µM | ≤ 5 µM | –
34 | Cc1cc(C)cc(Nc2nccc(-c3ncc(N4CCNCC4)s3)n2)c1 [Example I-93] | ≤ 5 µM | ≤ 5 µM | –
35 | Cc1cnc(-c2ccnc(Nc3ccc(-n4cncn4)cc3)n2)s1 [Example I-23] | ≤ 5 µM | ≤ 5 µM | –
36 | CC(=O)Nc1cc(C)cc(Nc2nccc(-c3ncc(C)s3)n2)c1 [Example I-154] | ≤ 5 µM | ≤ 5 µM | –
37 | Cc1cc(C)cc(Nc2nccc(-c3ncc(CNc4cccnc4)s3)n2)c1 [Example I-124] | ≤ 5 µM | ≤ 5 µM | –
38 | CC(=O)Nc1ccc(Nc2nccc(-c3ncc(C)s3)n2)cc1 [Example I-157] | ≤ 5 µM | – | –
39 | Cc1cc(Nc2nccc(-c3ncc(C)s3)n2)[nH]n1 [Example I-151] | ≤ 5 µM | – | –
40 | Cc1cc(C)cc(Nc2nccc(-c3nc(CN4CCC(O)C4)cs3)n2)c1 (stereo not drawn) [Example I-58] | ≤ 5 µM | – | –

The remaining lines, values ahead:

Row | Ki [1, 3] | Ki [2] | Ki [1] | Compound
41 | ≤ 5 µM | ≤ 5 µM | – | COc1cc(Nc2nccc(-c3ncc(C)s3)n2)ccc1-c1ccccc1 [Example I-19]
42 | ≤ 5 µM | ≤ 5 µM | – | Cc1cc(C)cc(Nc2nccc(-c3ncc(CN4CCCCC4)s3)n2)c1 [Example I-46]
43 | ≤ 5 µM | ≤ 5 µM | – | Cc1cc(C)cc(Nc2nccc(-c3nc4ccccc4s3)n2)c1 [Example I-63]
44 | ≤ 5 µM | ≤ 5 µM | – | Cc1cnc(-c2ccnc(Nc3cc(N)cc(C(F)(F)F)c3)n2)s1 [Example I-89]
45 | ≤ 5 µM | – | – | Cc1cnc(-c2ccnc(Nc3ccc4c(c3)C(=O)OC4)n2)s1 [Example I-126]
46 | ≤ 5 µM | ≤ 5 µM | – | Cc1cc(C)cc(Nc2nccc(-c3ncc(C(=O)Nc4ccccc4)s3)n2)c1 [Example I-137]
47 | ≤ 5 µM | ≤ 5 µM | – | COc1cc(Nc2nccc(-c3ncc(Cl)s3)n2)cc(OC)c1OC [Example I-143]
48 | ≤ 5 µM | – | – | Cc1cc(C)cc(Nc2nccc(-c3nc(CNCC(=O)OC(C)(C)C)cs3)n2)c1 [Example I-67]
49 | ≤ 5 µM | ≤ 5 µM | – | COC(=O)c1cc(Nc2nccc(-c3ncc(C)s3)n2)cc(C(=O)OC)c1 [Example I-121]
50 | ≤ 5 µM | ≤ 5 µM | – | Cc1cnc(-c2ccnc(Nc3cccc(CO)c3)n2)s1 [Example I-111]
51 | ≤ 5 µM | ≤ 5 µM | – | Cc1cnc(-c2ccnc(Nc3ccc4c(c3)OCCCO4)n2)s1 [Example I-4]
52 | ≤ 5 µM | ≤ 5 µM | – | CC(=O)c1cccc(Nc2nccc(-c3ncc(C)s3)n2)c1 [Example I-30]
53 | ≤ 5 µM | ≤ 5 µM | – | CC(=O)Nc1cccc(Nc2nccc(-c3ncc(C)s3)n2)c1 [Example I-78]
54 | ≤ 5 µM | ≤ 5 µM | – | COC(=O)c1ccc(Nc2nccc(-c3ncc(C)s3)n2)cc1C [Example I-106]
55 | ≤ 5 µM | ≤ 5 µM | – | Cc1cc(C)cc(Nc2nccc(-c3ncc(CNc4ccccc4)s3)n2)c1 [Example I-141]
56 | ≤ 5 µM | ≤ 5 µM | – | Cc1cnc(-c2ccnc(Nc3ccc4c(c3)CCN4S(C)(=O)=O)n2)s1 [Example I-20]
57 | ≤ 5 µM | ≤ 5 µM | – | Cc1cnc(-c2ccnc(Nc3ccc4c(c3)CC(=O)N4)n2)s1 [Example I-36]
